Measured values: patent publication US20260293894A1, “FUSED PYRROLIDINE-2-ONE HERBICIDAL COMPOUNDS” (SYNGENTA CROP PROTECTION AG, priority 2023, published 2026)

Legend:
Assay type in all cases: in vivo
Details in all cases: 1000 g/Ha, evaluated after 13 days, glasshouse
Setaria faberi (SETFA) [1] = test: Pre-emergence herbicidal activity, percentage damage to SETFA
Method: (§1) Seeds of a variety of test species are sown in standard soil in pots Amaranthus palmeri (AMAPA), Amaranthus retroflexus (AMARE), Setaria faberi (SETFA), Echinochloa crus-galli (ECHCG), Ipomoea hederacea (IPOHE),). After cultivation for one day (pre-emergence) or after 8 days cultivation (post-emergence) under controlled conditions in a glasshouse (at 24/160C, day/night; 14 hours light; 65% humidity), the plants are sprayed with an aqueous spray solution derived from the dissolution of the technical active ingredient in a small amount of acetone and a special solvent and emulsifier mixture referred to as IF50 (11.12% Emulsogen EL360 TM+44.44% N-methylpyrrolidone+44.44% Dowanol DPM glycol ether, which was then diluted to required concentration using 0.2% Genapol XO80 (CAS No. 9043-30-5) in water as the diluent. Compounds are applied at the rates stated. The test plants are then grown in a glasshouse under controlled conditions in a glasshouse (at 24/160C, day/night; 14 hours light; 65% humidity) and watered twice daily. After 13 days for pre and post-emergence, the test is evaluated for the percentage damage caused to the plant. The biological activities are shown in the following table on a five-point scale (5=81-100%; 4=61-80%; 3=41-60%; 2=21-40%; 1=0-20%; NT=not tested).

[2] = system: Echinochloa crus-galli (ECHCG); test: Pre-emergence herbicidal activity, percentage damage to ECHCG
Method: as §1

[3] = system: Amaranthus palmeri (AMAPA); test: Pre-emergence herbicidal activity, percentage damage to AMAPA
Method: as §1

[4] = system: Amaranthus retroflexus (AMARE); test: Pre-emergence herbicidal activity, percentage damage to AMARE
Method: as §1

[5] = system: Ipomoea hederacea (IPOHE); test: Pre-emergence herbicidal activity, percentage damage to IPOHE
Method: as §1

Setaria faberi (SETFA) [6] = test: Post-emergence herbicidal activity, percentage damage to SETFA
Method: as §1

[7] = system: Echinochloa crus-galli (ECHCG); test: Post-emergence herbicidal activity, percentage damage to ECHCG
Method: as §1

[8] = system: Amaranthus palmeri (AMAPA); test: Post-emergence herbicidal activity, percentage damage to AMAPA
Method: as §1

[9] = system: Amaranthus retroflexus (AMARE); test: Post-emergence herbicidal activity, percentage damage to AMARE
Method: as §1

[10] = system: Ipomoea hederacea (IPOHE); test: Post-emergence herbicidal activity, percentage damage to IPOHE
Method: as §1

O=C(O)C[C@@H]1[C@@H]2C[C@@H]2C(=O)N1Cc1cccc(F)c1F (relative stereo) [A.01, 2-[(1R*,2R*,5S*)-3-[(2,3-difluorophenyl)methyl]-4-oxo-3-azabicyclo[3.1.0]hexan-2-yl]acetic acid]
percentage damage caused to the plant (SETFA) (Setaria faberi (SETFA) [1]): 5 (81-100%) | percentage damage caused to the plant (ECHCG) [2]: 4 (61-80%) | percentage damage caused to the plant (AMAPA) [3]: 2 (21-40%) | percentage damage caused to the plant (AMARE) [4]: 4 (61-80%) | percentage damage caused to the plant (IPOHE) [5]: 2 (21-40%) | percentage damage caused to the plant (SETFA) (Setaria faberi (SETFA) [6]): 5 (81-100%) | percentage damage caused to the plant (ECHCG) [7]: 4 (61-80%) | percentage damage caused to the plant (AMAPA) [8]: 2 (21-40%) | percentage damage caused to the plant (AMARE) [9]: 4 (61-80%) | percentage damage caused to the plant (IPOHE) [10]: 3 (41-60%)

COC(=O)C[C@H]1[C@@H]2C[C@@H]2C(=O)N1Cc1cccc(F)c1F (relative stereo) [A.10, methyl 2-[(1R*,2S*,5S*)-3-[(2,3-difluorophenyl)methyl]-4-oxo-3-azabicyclo[3.1.0]hexan-2-yl]acetate]
percentage damage caused to the plant (SETFA) (Setaria faberi (SETFA) [1]): 4 (61-80%) | percentage damage caused to the plant (ECHCG) [2]: 1 (0-20%) | percentage damage caused to the plant (AMAPA) [3]: 2 (21-40%) | percentage damage caused to the plant (AMARE) [4]: 2 (21-40%) | percentage damage caused to the plant (IPOHE) [5]: 1 (0-20%) | percentage damage caused to the plant (SETFA) (Setaria faberi (SETFA) [6]): 4 (61-80%) | percentage damage caused to the plant (ECHCG) [7]: 2 (21-40%) | percentage damage caused to the plant (AMAPA) [8]: 1 (0-20%) | percentage damage caused to the plant (AMARE) [9]: 2 (21-40%) | percentage damage caused to the plant (IPOHE) [10]: 2 (21-40%)

O=C(O)C[C@@H]1[C@@H]2C[C@@H]2C(=O)N1Cc1ccccc1F (relative stereo) [A.61, 2-[(1R*,2R*,5S*)-3-[(2-fluorophenyl)methyl]-4-oxo-3-azabicyclo[3.1.0]hexan-2-yl]acetic acid]
percentage damage caused to the plant (SETFA) (Setaria faberi (SETFA) [1]): 5 (81-100%) | percentage damage caused to the plant (ECHCG) [2]: 3 (41-60%) | percentage damage caused to the plant (AMAPA) [3]: 4 (61-80%) | percentage damage caused to the plant (AMARE) [4]: 5 (81-100%) | percentage damage caused to the plant (IPOHE) [5]: 1 (0-20%) | percentage damage caused to the plant (SETFA) (Setaria faberi (SETFA) [6]): 5 (81-100%) | percentage damage caused to the plant (ECHCG) [7]: 3 (41-60%) | percentage damage caused to the plant (AMAPA) [8]: 3 (41-60%) | percentage damage caused to the plant (AMARE) [9]: 4 (61-80%) | percentage damage caused to the plant (IPOHE) [10]: 3 (41-60%)

O=C(O)C[C@@H]1[C@@H]2C[C@@H]2C(=O)N1Cc1cccc(F)c1 (relative stereo) [A.64, 2-[(1R*,2R*,5S*)-3-[(3-fluorophenyl)methyl]-4-oxo-3-azabicyclo[3.1.0]hexan-2-yl]acetic acid]
percentage damage caused to the plant (SETFA) (Setaria faberi (SETFA) [1]): 5 (81-100%) | percentage damage caused to the plant (ECHCG) [2]: 4 (61-80%) | percentage damage caused to the plant (AMAPA) [3]: 4 (61-80%) | percentage damage caused to the plant (AMARE) [4]: 5 (81-100%) | percentage damage caused to the plant (IPOHE) [5]: 4 (61-80%) | percentage damage caused to the plant (SETFA) (Setaria faberi (SETFA) [6]): 5 (81-100%) | percentage damage caused to the plant (ECHCG) [7]: 3 (41-60%) | percentage damage caused to the plant (AMAPA) [8]: 3 (41-60%) | percentage damage caused to the plant (AMARE) [9]: 4 (61-80%) | percentage damage caused to the plant (IPOHE) [10]: 3 (41-60%)

O=C(O)C[C@@H]1[C@@H]2C[C@@H]2C(=O)N1Cc1ccc(F)cc1 (relative stereo) [A.67, 2-[(1R*,2R*,5S*)-3-[(4-fluorophenyl)methyl]-4-oxo-3-azabicyclo[3.1.0]hexan-2-yl]acetic acid]
percentage damage caused to the plant (SETFA) (Setaria faberi (SETFA) [1]): 3 (41-60%) | percentage damage caused to the plant (ECHCG) [2]: 3 (41-60%) | percentage damage caused to the plant (AMAPA) [3]: 4 (61-80%) | percentage damage caused to the plant (AMARE) [4]: 3 (41-60%) | percentage damage caused to the plant (IPOHE) [5]: 4 (61-80%) | percentage damage caused to the plant (SETFA) (Setaria faberi (SETFA) [6]): 4 (61-80%) | percentage damage caused to the plant (ECHCG) [7]: 2 (21-40%) | percentage damage caused to the plant (AMAPA) [8]: 3 (41-60%) | percentage damage caused to the plant (AMARE) [9]: 1 (0-20%) | percentage damage caused to the plant (IPOHE) [10]: 2 (21-40%)

O=C(O)C[C@@H]1[C@@H]2C[C@@H]2C(=O)N1Cc1cccc(Cl)c1 (relative stereo) [A.70, 2-[(1R*,2R*,5S*)-3-[(3-chlorophenyl)methyl]-4-oxo-3-azabicyclo[3.1.0]hexan-2-yl]acetic acid]
percentage damage caused to the plant (SETFA) (Setaria faberi (SETFA) [1]): 5 (81-100%) | percentage damage caused to the plant (ECHCG) [2]: 4 (61-80%) | percentage damage caused to the plant (AMAPA) [3]: 1 (0-20%) | percentage damage caused to the plant (AMARE) [4]: 2 (21-40%) | percentage damage caused to the plant (IPOHE) [5]: 1 (0-20%) | percentage damage caused to the plant (SETFA) (Setaria faberi (SETFA) [6]): 4 (61-80%) | percentage damage caused to the plant (ECHCG) [7]: 3 (41-60%) | percentage damage caused to the plant (AMAPA) [8]: 3 (41-60%) | percentage damage caused to the plant (AMARE) [9]: 1 (0-20%) | percentage damage caused to the plant (IPOHE) [10]: 1 (0-20%)

O=C(O)C[C@@H]1[C@@H]2C[C@@H]2C(=O)N1Cc1ccc(F)c(F)c1 (relative stereo) [A.73, 2-[(1R*,2R*,5S*)-3-[(3,4-difluorophenyl)methyl]-4-oxo-3-azabicyclo[3.1.0]hexan-2-yl]acetic acid]
percentage damage caused to the plant (SETFA) (Setaria faberi (SETFA) [1]): 5 (81-100%) | percentage damage caused to the plant (ECHCG) [2]: 3 (41-60%) | percentage damage caused to the plant (AMAPA) [3]: 3 (41-60%) | percentage damage caused to the plant (AMARE) [4]: 4 (61-80%) | percentage damage caused to the plant (IPOHE) [5]: 4 (61-80%) | percentage damage caused to the plant (SETFA) (Setaria faberi (SETFA) [6]): 4 (61-80%) | percentage damage caused to the plant (ECHCG) [7]: 3 (41-60%) | percentage damage caused to the plant (AMAPA) [8]: 1 (0-20%) | percentage damage caused to the plant (AMARE) [9]: 2 (21-40%) | percentage damage caused to the plant (IPOHE) [10]: 1 (0-20%)

O=C(O)C[C@@H]1[C@@H]2C[C@@H]2C(=O)N1Cc1ccc(Cl)cc1F (relative stereo) [A.76, 2-[(1R*,2R*,5S*)-3-[(2-fluoro-4-chloro)methyl]-4-oxo-3-azabicyclo[3.1.0]hexan-2-yl]acetic acid]
percentage damage caused to the plant (SETFA) (Setaria faberi (SETFA) [1]): 3 (41-60%) | percentage damage caused to the plant (ECHCG) [2]: 1 (0-20%) | percentage damage caused to the plant (AMAPA) [3]: 3 (41-60%) | percentage damage caused to the plant (AMARE) [4]: 1 (0-20%) | percentage damage caused to the plant (IPOHE) [5]: 4 (61-80%) | percentage damage caused to the plant (SETFA) (Setaria faberi (SETFA) [6]): 3 (41-60%) | percentage damage caused to the plant (ECHCG) [7]: 1 (0-20%) | percentage damage caused to the plant (AMAPA) [8]: 1 (0-20%) | percentage damage caused to the plant (AMARE) [9]: 1 (0-20%) | percentage damage caused to the plant (IPOHE) [10]: 2 (21-40%)

O=C(O)C[C@@H]1[C@@H]2C[C@@H]2C(=O)N1Cc1ccc(Cl)c(F)c1 (relative stereo) [A.79, 2-[(1R*,2R*,5S*)-3-[(3-fluoro-4-chloro)methyl]-4-oxo-3-azabicyclo[3.1.0]hexan-2-yl]acetic acid]
percentage damage caused to the plant (SETFA) (Setaria faberi (SETFA) [1]): 4 (61-80%) | percentage damage caused to the plant (ECHCG) [2]: 2 (21-40%) | percentage damage caused to the plant (AMAPA) [3]: 1 (0-20%) | percentage damage caused to the plant (AMARE) [4]: 1 (0-20%) | percentage damage caused to the plant (IPOHE) [5]: 1 (0-20%) | percentage damage caused to the plant (SETFA) (Setaria faberi (SETFA) [6]): 4 (61-80%) | percentage damage caused to the plant (ECHCG) [7]: 1 (0-20%) | percentage damage caused to the plant (AMAPA) [8]: 1 (0-20%) | percentage damage caused to the plant (AMARE) [9]: 1 (0-20%) | percentage damage caused to the plant (IPOHE) [10]: 1 (0-20%)

O=C(O)C[C@@H]1[C@@H]2C[C@@H]2C(=O)N1Cc1ccc(F)c(Cl)c1 (relative stereo) [A.82, 2-[(1R*,2R*,5S*)-3-[(3-chloro-4-fluoro)methyl]-4-oxo-3-azabicyclo[3.1.0]hexan-2-yl]acetic acid]
percentage damage caused to the plant (SETFA) (Setaria faberi (SETFA) [1]): 4 (61-80%) | percentage damage caused to the plant (ECHCG) [2]: 1 (0-20%) | percentage damage caused to the plant (AMAPA) [3]: 2 (21-40%) | percentage damage caused to the plant (AMARE) [4]: 2 (21-40%) | percentage damage caused to the plant (IPOHE) [5]: 1 (0-20%) | percentage damage caused to the plant (SETFA) (Setaria faberi (SETFA) [6]): 4 (61-80%) | percentage damage caused to the plant (ECHCG) [7]: 1 (0-20%) | percentage damage caused to the plant (AMAPA) [8]: 1 (0-20%) | percentage damage caused to the plant (AMARE) [9]: 2 (21-40%) | percentage damage caused to the plant (IPOHE) [10]: 2 (21-40%)

O=C(O)C[C@@H]1[C@@H]2CCCC[C@@H]2C(=O)N1Cc1cccc(F)c1F (relative stereo) [E.01, 2-[(1R*,3aS*,7aR*)-2-[(2,3-difluorophenyl)methyl]-3-oxo-3a,4,5,6,7,7a-hexahydro-1H-isoindol-1-yl]acetic acid]
percentage damage caused to the plant (SETFA) (Setaria faberi (SETFA) [1]): 1 (0-20%) | percentage damage caused to the plant (ECHCG) [2]: 2 (21-40%) | percentage damage caused to the plant (AMAPA) [3]: 3 (41-60%) | percentage damage caused to the plant (AMARE) [4]: 3 (41-60%) | percentage damage caused to the plant (SETFA) (Setaria faberi (SETFA) [6]): 1 (0-20%) | percentage damage caused to the plant (ECHCG) [7]: 1 (0-20%) | percentage damage caused to the plant (AMAPA) [8]: 1 (0-20%) | percentage damage caused to the plant (AMARE) [9]: 1 (0-20%) | percentage damage caused to the plant (IPOHE) [10]: 1 (0-20%)
